Measurements reported in ChEMBL document CHEMBL2396564, “Synthesis and biological evaluation of a targeted DNA-binding transcriptional activator with HDAC8 inhibitory activity” (Bioorg Med Chem, 2013).
Activity calls are given as the source filed them. The calls are words filed in the database; no cut-off is given here.

Legend:
[1] = target: T1, Histone deacetylase 8 (Mus musculus) (UniProt Q8VH37); assay: Inhibition of HDAC8 in C57BL/6 mouse embryonic fibroblasts assessed as induction of histone H3 hyperacetylation in promoter region of Lhx1 at 100 nM after 24 hrs by ChIP analysis
T1 sequence (whole entry): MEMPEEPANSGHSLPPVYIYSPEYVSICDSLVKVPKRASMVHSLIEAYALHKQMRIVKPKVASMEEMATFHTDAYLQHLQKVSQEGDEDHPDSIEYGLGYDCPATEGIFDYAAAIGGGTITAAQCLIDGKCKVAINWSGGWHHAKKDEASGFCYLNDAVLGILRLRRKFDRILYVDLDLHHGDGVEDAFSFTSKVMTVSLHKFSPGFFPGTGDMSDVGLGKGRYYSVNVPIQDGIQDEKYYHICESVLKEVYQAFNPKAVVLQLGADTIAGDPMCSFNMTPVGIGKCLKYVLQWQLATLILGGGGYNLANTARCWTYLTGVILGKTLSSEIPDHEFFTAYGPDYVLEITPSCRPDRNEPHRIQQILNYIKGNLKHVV

[2] = target: T1, Histone deacetylase 8 (Mus musculus); assay: Inhibition of HDAC8 in C57BL/6 mouse embryonic fibroblasts assessed as induction of histone H3 hyperacetylation in promoter region of Otx2 at 100 nM after 24 hrs by ChIP analysis
[3] = target: T1, Histone deacetylase 8 (Mus musculus); assay: Inhibition of HDAC8 in C57BL/6 mouse embryonic fibroblasts assessed as upregulation of Lhx1 expression at 100 nM after 24 hrs by qPCR analysis relative to control
[4] = target: T1, Histone deacetylase 8 (Mus musculus); assay: Inhibition of HDAC8 in C57BL/6 mouse embryonic fibroblasts assessed as upregulation of Otx2 expression at 100 nM after 24 hrs by qPCR analysis relative to control
[5] = target: T1, Histone deacetylase 8 (Mus musculus); assay: Inhibition of HDAC8 in C57BL/6 mouse embryonic fibroblasts assessed as induction of histone H3 hyperacetylation in promoter region of Rex1 at 100 nM after 24 hrs by ChIP analysis
[6] = target: T1, Histone deacetylase 8 (Mus musculus); assay: Inhibition of HDAC8 in C57BL/6 mouse embryonic fibroblasts assessed as induction of histone H3 hyperacetylation in promoter region of Cdh1 at 100 nM after 24 hrs by ChIP analysis
[7] = target: T1, Histone deacetylase 8 (Mus musculus); assay: Inhibition of HDAC8 in C57BL/6 mouse embryonic fibroblasts assessed as induction of histone H3 hyperacetylation in promoter region of Nanog at 100 nM after 24 hrs by ChIP analysis
[8] = target: T1, Histone deacetylase 8 (Mus musculus); assay: Inhibition of HDAC8 in C57BL/6 mouse embryonic fibroblasts assessed as induction of histone H3 hyperacetylation in promoter region of Oct3/4 at 100 nM after 24 hrs by ChIP analysis
MEF [9] = assay: Upregulation of Klf4 expression in C57BL/6 mouse embryonic fibroblasts at 100 nM after 24 hrs by qPCR analysis; format: functional, cell-based
MEF [10] = assay: Cytotoxicity against C57BL/6 mouse embryonic fibroblasts assessed as cell viability at 10 uM after 24 hrs by WST-8 assay; format: cell-based
MEF [11] = assay: Upregulation of c-Myc expression in C57BL/6 mouse embryonic fibroblasts at 100 nM after 24 hrs by qPCR analysis; format: functional, cell-based
[12] = target: T1, Histone deacetylase 8 (Mus musculus); assay: Inhibition of HDAC8 in C57BL/6 mouse embryonic fibroblasts assessed as upregulation of Dppa4 expression at 100 nM after 24 hrs by qPCR analysis relative to control
[13] = target: T1, Histone deacetylase 8 (Mus musculus); assay: Inhibition of HDAC8 in C57BL/6 mouse embryonic fibroblasts assessed as upregulation of Cdh1 expression at 100 nM after 24 hrs by qPCR analysis relative to control
[14] = target: T1, Histone deacetylase 8 (Mus musculus); assay: Inhibition of HDAC8 in C57BL/6 mouse embryonic fibroblasts assessed as upregulation of Rex1 expression at 100 nM after 24 hrs by qPCR analysis relative to control
[15] = target: T1, Histone deacetylase 8 (Mus musculus); assay: Inhibition of HDAC8 in C57BL/6 mouse embryonic fibroblasts assessed as upregulation of Sox2 expression at 100 nM after 24 hrs by qPCR analysis relative to control
[16] = target: T1, Histone deacetylase 8 (Mus musculus); assay: Inhibition of HDAC8 in C57BL/6 mouse embryonic fibroblasts assessed as upregulation of Nanog expression at 100 nM after 24 hrs by qPCR analysis relative to control
[17] = target: T1, Histone deacetylase 8 (Mus musculus); assay: Inhibition of HDAC8 in C57BL/6 mouse embryonic fibroblasts assessed as upregulation of Oct3/4 expression at 100 nM after 24 hrs by qPCR analysis relative to control
[18] = target: T2, Histone deacetylase 8 (Homo sapiens) (UniProt Q9BY41); assay: Ratio of trichostatin A IC50 to compound IC50 for HDAC8 (unknown origin)
T2 sequence (whole entry): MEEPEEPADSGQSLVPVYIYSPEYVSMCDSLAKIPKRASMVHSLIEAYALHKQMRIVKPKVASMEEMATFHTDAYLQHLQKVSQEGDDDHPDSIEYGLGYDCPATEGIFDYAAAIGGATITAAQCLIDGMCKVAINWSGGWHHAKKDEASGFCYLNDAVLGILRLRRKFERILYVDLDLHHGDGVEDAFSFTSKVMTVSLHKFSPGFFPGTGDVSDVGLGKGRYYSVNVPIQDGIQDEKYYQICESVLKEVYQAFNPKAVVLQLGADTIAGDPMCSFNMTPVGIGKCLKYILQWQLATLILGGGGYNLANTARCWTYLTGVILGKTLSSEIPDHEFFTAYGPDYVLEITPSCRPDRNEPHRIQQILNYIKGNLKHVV

Histone deacetylase 8 = target: T3, Histone deacetylase 8 (Homo sapiens, UniProt Q9BY41); assay: Inhibition of HDAC8 (unknown origin) after 30 mins by fluorometric analysis
T3 sequence (Q9BY41 whole entry): T2 sequence (whole entry)

Histone deacetylase 1 = Histone deacetylase 1 (Homo sapiens, UniProt Q13547); assay: Inhibition of HDAC1 (unknown origin) after 30 mins by fluorometric analysis
Histone deacetylase 1, sequence (Q13547 whole entry): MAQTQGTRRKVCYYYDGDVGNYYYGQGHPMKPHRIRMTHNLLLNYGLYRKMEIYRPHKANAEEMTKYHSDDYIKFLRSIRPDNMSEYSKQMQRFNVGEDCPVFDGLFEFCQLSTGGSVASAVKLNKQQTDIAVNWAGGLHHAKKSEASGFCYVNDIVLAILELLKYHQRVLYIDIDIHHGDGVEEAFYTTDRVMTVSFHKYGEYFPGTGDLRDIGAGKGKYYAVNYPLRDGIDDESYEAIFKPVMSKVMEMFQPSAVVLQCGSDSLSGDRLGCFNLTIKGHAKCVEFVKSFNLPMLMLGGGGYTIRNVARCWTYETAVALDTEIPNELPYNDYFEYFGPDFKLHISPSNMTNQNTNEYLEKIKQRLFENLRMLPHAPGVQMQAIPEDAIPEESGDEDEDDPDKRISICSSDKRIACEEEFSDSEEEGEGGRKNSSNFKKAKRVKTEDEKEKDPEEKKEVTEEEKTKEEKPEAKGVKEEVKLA

Histone deacetylase 2 = Histone deacetylase 2 (Homo sapiens, UniProt Q92769); assay: Inhibition of HDAC2 (unknown origin) after 30 mins by fluorometric analysis
Histone deacetylase 2, sequence (Q92769 whole entry): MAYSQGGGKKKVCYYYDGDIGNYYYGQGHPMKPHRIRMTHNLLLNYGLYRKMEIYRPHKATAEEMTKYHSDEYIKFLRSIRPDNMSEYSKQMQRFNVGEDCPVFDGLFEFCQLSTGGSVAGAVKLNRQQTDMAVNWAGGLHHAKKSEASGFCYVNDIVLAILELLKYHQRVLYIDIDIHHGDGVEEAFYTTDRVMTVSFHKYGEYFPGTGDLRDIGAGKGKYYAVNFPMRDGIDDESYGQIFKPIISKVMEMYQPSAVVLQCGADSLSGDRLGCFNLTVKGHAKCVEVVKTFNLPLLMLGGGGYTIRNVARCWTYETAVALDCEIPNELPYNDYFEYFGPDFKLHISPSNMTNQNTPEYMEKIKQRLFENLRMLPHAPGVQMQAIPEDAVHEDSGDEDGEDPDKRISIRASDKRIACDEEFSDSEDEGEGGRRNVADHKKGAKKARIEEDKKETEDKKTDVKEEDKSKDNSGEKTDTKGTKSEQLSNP

| inhibition [1] | inhibition [2] | fold change (FC) [4] | inhibition [5] | inhibition [6] | inhibition [7] | inhibition [8] | fold change (FC) [12] | fold change (FC) [13] | fold change (FC) [14] | fold change (FC) [15] | fold change (FC) [16] | fold change (FC) [17] | IC50 (Histone deacetylase 8) [nM] | IC50 (Histone deacetylase 1) [nM] | IC50 (Histone deacetylase 2) [nM] | SMILES | Activity (MEF [9]) | Activity (MEF [10]) | Activity (MEF [11]) | also measured |
| --- | --- | --- | --- | --- | --- | --- | --- | --- | --- | --- | --- | --- | --- | --- | --- | --- | --- | --- | --- | --- |
| Active | Active | 74 | Active | Active | Active | Active | 2 | 25 | 60 | 6 | 16 | 20 | 130 | 490 | 1120 | CN(C)CCCNC(=O)c1cc(NC(=O)c2cc(NC(=O)c3cc(NC(=O)c4nc(NC(=O)CCCNC(=O)c5cc(NC(=O)c6cc(NC(=O)c7cc(NC(=O)c8nc(NC(=O)CCNC(=O)CCNC(=O)CCCCCCC(=O)NO)cn8C)cn7C)cn6C)cn5C)cn4C)cn3C)cn2C)cn1C | inactive | Non-toxic | inactive | fold change (FC) [3]: 2.6; Ratio IC50 [18]: 10 |
| inactive | Active | 40 | Active | Active | Active | Active | 2 | 25 | 60 | 6 | 20 | 20 | 820 | 370 | 770 | CN(C)CCCNC(=O)c1cc(NC(=O)c2cc(NC(=O)c3cc(NC(=O)c4nc(NC(=O)CCCNC(=O)c5cc(NC(=O)c6cc(NC(=O)c7cc(NC(=O)c8nc(NC(=O)CCNC(=O)CCNC(=O)c9ccc(NC(=O)CCCCCCC(=O)NO)cc9)cn8C)cn7C)cn6C)cn5C)cn4C)cn3C)cn2C)cn1C | inactive | Non-toxic | inactive | inhibition [3]: inactive |
